Assay results taken from patent US8894989B2, “PARP inhibitor compounds, compositions and methods of use” (Eisai Inc., priority 2007, dated 2014).
“Also recorded” adds a separate entry of the source. Where two headings read alike, the source gives them in different places. Blank lines part the entries; values can stand above or below the compound they belong to.

Experiments:
[1] = Bioavailability and brain/plasma levels in rats; settings: 30 mg/kg; for Kp / bioavailability: rat; for Kp: brain; for bioavailability: plasma, po
[2] = Bioavailability and brain/plasma levels in mice; settings: 30 mg/kg; for Kp / bioavailability: mouse; for Kp: brain; for bioavailability: plasma, po
[3] = in vivo; settings: mouse, po, 30 mg/kg
[4] = in vivo; settings: rat, po, 30 mg/kg
[5] = system: SJGBM2 glioma; settings: for efficacy (survival): compound 13 10 mg/kg po + TMZ
[6] = system: B16 melanoma; test: Mouse intracranial model of B16 melanoma, combination with TMZ; format: in vivo, mice; settings: for survival time: compound 13 10 mg/kg oral + TMZ vs TMZ as single agent (P<0.0001)
[7] = Plasma and tissue pharmacokinetic properties in mice, rats, and dogs (general statements); format: in vivo; settings: in words
Description: AUC was calculated using the Linear/Log rule.
Selective PARP inhibitors were tested for basic plasma and tissue pharmacokinetic properties in mice, rats, and dogs. After assessment, this family compounds appear to be orally bioavailable in all species and to penetrate brain and tumor tissue.

[8] = system: BRCA-1 null cells; test: Tumor growth in mice bearing BRCA-1 deficient tumors; format: in vivo, nu/nu mice
Description: 1×10^6 BRCA-1 null cells were injected subcutaneously on the right flank of female nu/nu mice (6-7 weeks old; Harlan Sprague Dawley, Indianapolis Ind.). After approximately 10-14 days, the tumors were approximately 100 mm^3. Mice were sorted into groups so that mean tumor size was similar among groups with minimum standard deviations. Dosing started the day after sorting and tumor volume was monitored three times per week. Tumors were measured in two diameters and volume calculated by […]. Mice were removed from the study when tumors reached 1500 mm^3. “Time to Endpoint” or TTE (the number of days it takes for the tumor to reach 1500 mm^3 or greater) is the endpoint of the study. […] The compound was dosed orally, daily for 28 days from start of the study—day 1. A positive control was utilized, using a well known PARP inhibitor shown to be effective as a stand alone agent in the BRCA models (Bryant et al). The positive control agent was dosed at 25 mg/kg IP qdx5 from start of experiment.

[9] = system: Human HNSCC cell line JHU012; test: Enhancement of radiation treatment of head and neck squamous cell carcinoma xenograft; format: in vivo, BALB/c nude mice
Description: Human HNSCC cell line JHU012 was used, having been previously genetically characterized and originally derived at the Johns Hopkins University Head and Neck Laboratories from human tumor explants. The cell line was maintained in RPMI 1640 medium with 10% fetal bovine serum and 1% penicillin/streptomycin at 5% CO2 in 37° C. humidified incubators. Experiments were performed on 6-week-old male BALB/c nude mice nu/nu. […] Mice were anesthetized by intraperitoneal injection of […] tribromoethanol. Tumors were established at the right flank by subcutaneous injection of 1×10^7 cells. Fourteen days post cell injection tumors were surgically exposed and measured in 3 dimensions using calipers.

Kp [1]: < 0.05
bioavailability [1]: 77%
Kp [2]: < 0.05
bioavailability [2]: 77%
Compound: O=c1[nH]nc2c3c(cccc13)N=C(CN1CCOCC1)N2 [drawing 95]

Compound: O=c1[nH]nc2c3c(cccc13)N=C(CN1CC=C(c3ccccc3)CC1)N2 [drawing 97]
Kp [1]: 0.42
bioavailability [3]: 61%
Kp [2]: 0.46
bioavailability [4]: 51%

Kp [1]: 0.4
bioavailability [1]: 58%
Kp [2]: 0.49
bioavailability [2]: 49%
Compound: O=c1[nH]nc2c3c(cccc13)N=C(CN1CCN(c3ccccc3)CC1)N2

bioavailability [1]: 50%
B/P in rats (ratio of brain to plasma levels) ([1]; rats): 71-117%
B/P in mice (ratio of brain to plasma levels) ([2]; mice): 30-64%
bioavailability [2]: 75%
Compound: O=c1[nH]nc2c3c(cccc13)N=C(CN1CCC(c3ccccc3)CC1)N2

Compound: O=c1[nH]nc2c3c(cccc13)N=C(CN1CC=C(c3ccccc3)CC1)N2 [Compound 13, 8-(4-phenyl-3,6-dihydro-2H-pyridin-1-ylmethyl)-2,9-dihydro-1,2,7,9-tetraaza-phenalen-3-one]
MTS (median survival time) ([5]; compound 13 10 mg/kg po 15 min pre-TMZ, combination with TMZ (P=0.002)): 25 days
efficacy (survival) [5]: enhanced survival
efficacy (survival) ([5]; listed as compound 13): efficacious
survival time [6]: enhance survival
survival time ([6]; listed as compound 13): significantly increased the survival time

Compound: Cn1nnc2c(C(N)=O)ncn2c1=O [TMZ, temozolomide, reference compound]
MTS (median survival time) ([5]; TMZ alone): 22.5 days
response of SJGBM2 to TMZ ([5]; TMZ as single agent): ineffective
survival times ([6]; TMZ treated vs control group): No significant differences in survival times

oral bioavailability [7]: good bioavailability
ratio of brain to plasma levels [7]: very low
Compound: O=c1[nH]nc2c3c(cccc13)N=C(CN1CCOCC1)N2 [prior art compound]

Compound: O=c1[nH]nc2c3c(cccc13)N=C(CN1Cc3ccccc3C1)N2 [Compound 37, 8-(1,3-dihydro-isoindol-2-ylmethyl)-2,9-dihydro-1,2,7,9-tetraaza-phenalen-3-one]
tumor growth ([8]; 100 mg/kg Compound 37 orally, daily for 28 days, vs vehicle controls): effective in significantly retarding tumor growth; also recorded: inhibition of growth
time until tumors start to grow after dosing stopped at day 28 ([8]; Compound 37 100 mg/kg po daily for 28 days): 10 to 14 days
tumor growth delay compared to positive control ([8]; Compound 37 100 mg/kg po vs positive control PARP inhibitor 25 mg/kg IP qdx5 (p<0.05)): delayed tumor growth compared to the positive control
tumor growth inhibition ([9]; 100 mg/kg Compound 37 PO qdx17 alone compared to vehicle controls): no significant effect on tumor growth inhibition
tumor growth inhibition ([9]; Compound 37 30 mg/kg PO + radiation compared to radiation alone): no significant effect on tumor growth inhibition
inhibition of tumor growth ([9]; Compound 37 oral (100 mg/kg) + radiation vs control): significant inhibition of tumor growth
tumor volume at end of experiment ([9]; Group 5: 100 mg/kg Compound 37 PO + Radiation (2 gy/day for 2 days), day 31, control 585.9 mm^3, p<0.01): 209.04 mm^3
animal survival ([5]; 10 mg/kg Compound 37 + TMZ five days followed by Compound 37 100 mg/kg for 14 days vs 10 mg/kg Compound 37 + TMZ five days): significantly increased animal survival
mean survival time ([6]; Compound 37 12.5 mg/kg oral + TMZ vs TMZ as single agent): significantly higher; also recorded: enhance survival

Compound: O=c1[nH]nc2c3c(cccc13)N=C(CN1Cc3ccccc3C1)N2 [drawing 99]
Kp [1]: 0.36
bioavailability [1]: 45%
Kp [2]: 0.26
bioavailability [2]: 81%
